Broadly, the IC50 is the concentration that inhibits the measured activity by half.

Sequence of p38a activated, mitogen-activated protein kinase-activated protein kinase 2 (MAPKAP-K2 or MK2) enzyme (P49137 whole entry): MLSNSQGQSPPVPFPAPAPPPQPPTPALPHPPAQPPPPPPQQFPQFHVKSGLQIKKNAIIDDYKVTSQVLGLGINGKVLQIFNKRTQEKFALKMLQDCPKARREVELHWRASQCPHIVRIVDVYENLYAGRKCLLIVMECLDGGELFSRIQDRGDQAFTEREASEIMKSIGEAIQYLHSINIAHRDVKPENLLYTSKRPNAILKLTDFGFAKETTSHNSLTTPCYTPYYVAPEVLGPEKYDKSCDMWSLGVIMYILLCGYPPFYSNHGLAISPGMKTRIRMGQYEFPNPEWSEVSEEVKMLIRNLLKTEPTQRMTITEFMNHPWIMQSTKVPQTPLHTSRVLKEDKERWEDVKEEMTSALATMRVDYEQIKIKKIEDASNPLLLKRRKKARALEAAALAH

This experiment concerns the target p38a activated, mitogen-activated protein kinase-activated protein kinase 2 (MAPKAP-K2 or MK2) enzyme (Homo sapiens (Human), UniProt P49137). The experiment can be described thus: MK2 Omnia continuous-read kinase assay for compound potency. The conditions noted are these: [MK-2]=0.4 nM, [ATP]=10 μM, [ST3-Sox]=10 μM; room temperature. Type of experiment: biochemical. The method, boiled down: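 Continuous Sox-peptide fluorescence read (ex360/em485) every 71 s over 2 h at room temperature. Reactions: 10 μM each of ATP (at apparent Km) and S/T3-Sox, 0.4 nM p38a-activated MK2, pH 7.5 Tris/MgCl2 buffer. Initial rates yield % inhibition and IC50; single-exponential kobs values yield apparent kinact/KI.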
Turning to `C=Cc1cc(-c2ccc3c(ccc4sc5c(c43)NC[C@@H](C)NC5=O)n2)c(NC)nn1` [Example I-128, (R)-10-methyl-3-(3-(methylamino)-6-vinylpyridazin-4-yl)-9,10,11,12-tetrahydro-8H-[1,4]diazepino[5′,6′:4,5]thieno[3,2-f]quinolin-8-one], the IC50 stood at 0.019 µM.
`C=Cc1cc(-c2ccc3c(ccc4sc5c(c43)NC[C@@H](C)NC5=O)n2)c(N(C)C)nn1` [Example I-129, (R)-3-(3-(dimethylamino)-6-vinylpyridazin-4-yl)-10-methyl-9,10,11,12-tetrahydro-8H-[1,4]diazepino[5′,6′:4,5]thieno[3,2-f]quinolin-8-one]: the IC50 worked out at 0.106 µM.
In the case of `C=Cc1cc(-c2ccc3c(ccc4sc5c(c43)NC[C@@H](C)NC5=O)n2)c(C(F)F)cn1` [Example I-130, (R)-3-(5-(difluoromethyl)-2-vinylpyridin-4-yl)-10-methyl-9,10,11,12-tetrahydro-8H-[1,4]diazepino[5′,6′:4,5]thieno[3,2-f]quinolin-8-one] it was 0.004 µM.
As for `C=C(CN1CCOCC1)c1cc(-c2ccc3c(ccc4sc5c(c43)NC[C@@H](C)NC5=O)n2)ccn1` [Example I-131, (R)-10-methyl-3-(2-(3-morpholinoprop-1-en-2-yl)pyridin-4-yl)-9,10,11,12-tetrahydro-8H-[1,4]diazepino[5′,6′:4,5]thieno[3,2-f]quinolin-8-one], the IC50 amounted to 0.003 µM.
In the case of `C[C@@H]1CNc2c(sc3ccc4nc(-c5cc(Cl)nnc5OCCN5CCOCC5)ccc4c23)C(=O)N1` [Example I-132, (R)-3-(6-chloro-3-(2-morpholinoethoxy)pyridazin-4-yl)-10-methyl-9,10,11,12-tetrahydro-8H-[1,4]diazepino[5′,6′:4,5]thieno[3,2-f]quinolin-8-one] it was 0.912 µM; in that of `C=Cc1cc(-c2ccc3c(ccc4sc5c(c43)NC[C@@H](C)NC5=O)n2)c(OCCN2CCOCC2)nn1` [Example I-133, (R)-10-methyl-3-(3-(2-morpholinoethoxy)-6-vinylpyridazin-4-yl)-9,10,11,12-tetrahydro-8H-[1,4]diazepino[5′,6′:4,5]thieno[3,2-f]quinolin-8-one], 0.255 µM; in that of `C#Cc1cc(-c2ccc3c(ccc4sc5c(c43)NC[C@@H](C)NC5=O)n2)c(OCCN2CCOCC2)nn1` [Example I-134, (R)-3-(6-ethynyl-3-(2-morpholinoethoxy)pyridazin-4-yl)-10-methyl-9,10,11,12-tetrahydro-8H-[1,4]diazepino[5′,6′:4,5]thieno[3,2-f]quinolin-8-one], 0.137 µM.
For `C[C@@H]1CNc2c(sc3ccc4nc(-c5ccnc(C#CC(C)(C)N)c5)ccc4c23)C(=O)N1` [Example I-135, (R)-3-(2-(3-amino-3-methylbut-1-yn-1-yl)pyridin-4-yl)-10-methyl-9,10,11,12-tetrahydro-8H-[1,4]diazepino[5′,6′:4,5]thieno[3,2-f]quinolin-8-one], the IC50 came to 0.015 µM.
Turning to `C=Cc1cc(-c2ccc3c(ccc4sc5c(c43)NC[C@@H](C)NC5=O)n2)c(C)nn1` [Example I-136, (R)-10-methyl-3-(3-methyl-6-vinylpyridazin-4-yl)-9,10,11,12-tetrahydro-8H-[1,4]diazepino[5′,6′:4,5]thieno[3,2-f]quinolin-8-one], the half-inhibitory concentration (IC50) is 0.009 µM.
In the case of `C=Cc1cc(-c2ccc3c(ccc4sc5c(c43)NC[C@@H](C)NC5=O)n2)c(C(=O)OC)nn1` [Example I-137, methyl (R)-4-(10-methyl-8-oxo-9,10,11,12-tetrahydro-8H-[1,4]diazepino[5′,6′:4,5]thieno[3,2-f]quinolin-3-yl)-6-vinylpyridazine-3-carboxylate] it was 0.003 µM; in that of `C=C(CN1CCOCC1)c1cc(-c2ccc3c(ccc4sc5c(c43)NC[C@@H](C)NC5=O)n2)c(OC)nn1` [Example I-138, (R)-3-(3-methoxy-6-(3-morpholinoprop-1-en-2-yl)pyridazin-4-yl)-10-methyl-9,10,11,12-tetrahydro-8H-[1,4]diazepino[5′,6′:4,5]thieno[3,2-f]quinolin-8-one], 0.096 µM.
`C=Cc1cc(-c2ccc3c(ccc4sc5c(c43)NC[C@@H](C)NC5=O)n2)cc(CN2CCOCC2)n1` [Example I-140, (R)-10-methyl-3-(2-(morpholinomethyl)-6-vinylpyridin-4-yl)-9,10,11,12-tetrahydro-8H-[1,4]diazepino[5′,6′:4,5]thieno[3,2-f]quinolin-8-one]: the IC50 was determined as 0.014 µM.
With `C=Cc1cc(-c2ccc3c(ccc4sc5c(c43)NC[C@@H](C)NC5=O)n2)cc(CN2CCC3(CC2)CC3(F)F)n1` [Example I-141, (R)-3-(2-((1,1-difluoro-6-azaspiro[2.5]octan-6-yl)methyl)-6-vinylpyridin-4-yl)-10-methyl-9,10,11,12-tetrahydro-8H-[1,4]diazepino[5′,6′:4,5]thieno[3,2-f]quinolin-8-one], the IC50 came to 0.111 µM.
With `[2H]C([2H])([2H])c1cnc(C=C)cc1-c1ccc2c(ccc3sc4c(c32)NC[C@@H](C)NC4=O)n1` [Example I-142, (R)-10-methyl-3-(5-(methyl-d3)-2-vinylpyridin-4-yl)-9,10,11,12-tetrahydro-8H-[1,4]diazepino[5′,6′:4,5]thieno[3,2-f]quinolin-8-one], the IC50 stood at 0.009 µM.
Take `C=Cc1cc(-c2ccc3c(ccc4sc5c(c43)NC[C@@H](C)NC5=O)n2)c(Cl)cn1` [Example I-143, (R)-3-(5-chloro-2-vinylpyridin-4-yl)-10-methyl-9,10,11,12-tetrahydro-8H-[1,4]diazepino[5′,6′:4,5]thieno[3,2-f]quinolin-8-one]: the IC50 was determined as 0.059 µM.
In the case of `C#Cc1cc(-c2ccc3c(ccc4sc5c(c43)NC[C@@H](C)NC5=O)n2)c(Cl)cn1` [Example I-144, (R)-3-(5-chloro-2-ethynylpyridin-4-yl)-10-methyl-9,10,11,12-tetrahydro-8H-[1,4]diazepino[5′,6′:4,5]thieno[3,2-f]quinolin-8-one] it was 0.678 µM; in that of `COc1nnc(/C=C/CN(C)C)cc1-c1ccc2c(ccc3sc4c(c32)NC[C@@H](C)NC4=O)n1` [Example I-145, (R,E)-3-(6-(3-(dimethylamino)prop-1-en-1-yl)-3-methoxypyridazin-4-yl)-10-methyl-9,10,11,12-tetrahydro-8H-[1,4]diazepino[5′,6′:4,5]thieno[3,2-f]quinolin-8-one], 0.273 µM.
In the case of `C=Cc1cnn(C)c1-c1ccc2c(ccc3sc4c(c32)NC[C@@H](C)NC4=O)n1` [Example I-146, (R)-10-methyl-3-(1-methyl-4-vinyl-1H-pyrazol-5-yl)-9,10,11,12-tetrahydro-8H-[1,4]diazepino[5′,6′:4,5]thieno[3,2-f]quinolin-8-one], the IC50 was 0.499 µM.
On to `C=Cc1ccn(-c2ccc3c(ccc4sc5c(c43)NC[C@@H](C)NC5=O)n2)n1` [Example I-147, (R)-10-methyl-3-(3-vinyl-1H-pyrazol-1-yl)-9,10,11,12-tetrahydro-8H-[1,4]diazepino[5′,6′:4,5]thieno[3,2-f]quinolin-8-one], for which the IC50 worked out at 0.104 µM.
Consider `C=Cc1cnn(-c2ccc3c(ccc4sc5c(c43)NC[C@@H](C)NC5=O)n2)c1` [Example I-148, (R)-10-methyl-3-(4-vinyl-1H-pyrazol-1-yl)-9,10,11,12-tetrahydro-8H-[1,4]diazepino[5′,6′:4,5]thieno[3,2-f]quinolin-8-one], for which the half-inhibitory concentration (IC50) stood at 0.101 µM.
In the case of `C=Cc1csc(-c2ccc3c(ccc4sc5c(c43)NC[C@@H](C)NC5=O)n2)n1` [Example I-149, (R)-10-methyl-3-(4-vinylthiazol-2-yl)-9,10,11,12-tetrahydro-8H-[1,4]diazepino[5′,6′:4,5]thieno[3,2-f]quinolin-8-one] it was 0.095 µM; in that of `C=Cc1ncc(-c2ccc3c(ccc4sc5c(c43)NC[C@@H](C)NC5=O)n2)[nH]1` [Example I-150, (R)-10-methyl-3-(2-vinyl-1H-imidazol-5-yl)-9,10,11,12-tetrahydro-8H-[1,4]diazepino[5′,6′:4,5]thieno[3,2-f]quinolin-8-one], 0.014 µM; in that of `C[C@@H]1CNc2c(sc3ccc4nc(-c5cnc(Cl)[nH]5)ccc4c23)C(=O)N1` [Example I-151, (R)-3-(2-chloro-1H-imidazol-5-yl)-10-methyl-9,10,11,12-tetrahydro-8H-[1,4]diazepino[5′,6′:4,5]thieno[3,2-f]quinolin-8-one], 0.023 µM.
As for `C[C@@H]1CNc2c(sc3ccc4nc(-n5cc(Cl)cn5)ccc4c23)C(=O)N1` [Example I-152, (R)-3-(4-chloro-1H-pyrazol-1-yl)-10-methyl-9,10,11,12-tetrahydro-8H-[1,4]diazepino[5′,6′:4,5]thieno[3,2-f]quinolin-8-one], the IC50 was found to be 0.086 µM.
In the case of `C=Cc1cc(-c2ccc3c(ccc4sc5c(c43)NC[C@@H](C)NC5=O)n2)c(CN2CCOCC2)cn1` [Example I-153, (R)-10-methyl-3-(5-(morpholinomethyl)-2-vinylpyridin-4-yl)-9,10,11,12-tetrahydro-8H-[1,4]diazepino[5′,6′:4,5]thieno[3,2-f]quinolin-8-one] it was 0.023 µM.
In the case of `C#Cc1cc(-c2ccc3c(ccc4sc5c(c43)NC[C@@H](C)NC5=O)n2)c(CN2CCOCC2)cn1` [Example I-154, (R)-3-(2-ethynyl-5-(morpholinomethyl)pyridin-4-yl)-10-methyl-9,10,11,12-tetrahydro-8H-[1,4]diazepino[5′,6′:4,5]thieno[3,2-f]quinolin-8-one] it was 0.049 µM; in that of `C=Cc1cc(-c2ccc3c(ccc4sc5c(c43)NC[C@@H](C)NC5=O)n2)c(CN2CCC(OC)CC2)cn1` [Example I-155, (R)-3-(5-((4-methoxypiperidin-1-yl)methyl)-2-vinylpyridin-4-yl)-10-methyl-9,10,11,12-tetrahydro-8H-[1,4]diazepino[5′,6′:4,5]thieno[3,2-f]quinolin-8-one], 0.095 µM.

Source of the values: patent publication US20240190890A1, “MK2 INHIBITORS AND USES THEREOF” (Bristol-Myers Squibb Company, priority 2022, published 2024).
